Assay results published in PubChem BioAssay AID248 (DTP/NCI, 2004).
Where “and” joins values, the source holds several entries; their conditions need not be identical. Equal values may be shown once. Toxic doses and inconclusive results are not listed. No stated cut-off is given here; in the data, active means T/C of 150% or more; inactive means T/C below 125%.

System: L1210 leukemia ip in BDF1 mice, survival T/C
Assay: NCI In Vivo Anticancer Drug Screen. Data for tumor model L1210 Leukemia (intraperitoneal) in B6D2F1 (BDF1) mice
Conditions: endpoint: mean survival time, higher = longer survival
In short: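 Tumor cells were implanted, animals were treated, and survival was followed. The result divides the treated measurement by the vehicle-control measurement.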

[1] = dose: 100.0 mg/kg/injection, schedule: Q01DX001 (ip), vehicle: saline
[2] = dose: 100.0 mg/kg/injection, schedule: Q01DX009 (ip), vehicle: saline
[3] = dose: 100.0 mg/kg/injection, schedule: Q04DX002 (ip), vehicle: saline
[4] = dose: 200.0 mg/kg/injection, schedule: Q01DX001 (ip), vehicle: saline
[5] = dose: 200.0 mg/kg/injection, schedule: Q01DX009 (ip), vehicle: saline
[6] = dose: 200.0 mg/kg/injection, schedule: Q04DX002 (ip), vehicle: saline
[7] = dose: 400.0 mg/kg/injection, schedule: Q01DX001 (ip), vehicle: saline
[8] = dose: 400.0 mg/kg/injection, schedule: Q01DX009 (ip), vehicle: saline
[9] = dose: 400.0 mg/kg/injection, schedule: Q04DX002 (ip), vehicle: saline
[10] = dose: 100.0 mg/kg/injection, schedule: Q01DX009 (ip), vehicle: saline with Tween-80
[11] = dose: 200.0 mg/kg/injection, schedule: Q01DX009 (ip), vehicle: saline with Tween-80
[12] = dose: 400.0 mg/kg/injection, schedule: Q01DX009 (ip), vehicle: saline with Tween-80
[13] = dose: 100.0 mg/kg/injection, schedule: Q04DX003 (ip), vehicle: Klucel (hydroxypropylcellulose) (HPC)
[14] = dose: 200.0 mg/kg/injection, schedule: Q04DX003 (ip), vehicle: Klucel (hydroxypropylcellulose) (HPC)
[15] = dose: 400.0 mg/kg/injection, schedule: Q04DX003 (ip), vehicle: Klucel (hydroxypropylcellulose) (HPC)
[16] = dose: 100.0 mg/kg/injection, schedule: Q04DX002 (ip), vehicle: saline with Tween-80
[17] = dose: 100.0 mg/kg/injection, schedule: Q01DX001 (ip), vehicle: carboxymethylcellulose (CMC)
[18] = dose: 200.0 mg/kg/injection, schedule: Q01DX001 (ip), vehicle: carboxymethylcellulose (CMC)
[19] = dose: 400.0 mg/kg/injection, schedule: Q01DX001 (ip), vehicle: carboxymethylcellulose (CMC)
[20] = dose: 50.0 mg/kg/injection, schedule: Q01DX001 (ip), vehicle: carboxymethylcellulose (CMC)

Measured: T/C

Cc1ccc(S(=O)(=O)F)cc1C(=O)NCc1ccc(OCc2nc(N)nc(N)c2-c2ccc(Cl)c(Cl)c2)cc1
inactive: dose: 32.5 mg/kg/injection, schedule: Q01DX001 (ip), vehicle: Klucel (hydroxypropylcellulose) (HPC) 96 % of control | dose: 65.0 mg/kg/injection, schedule: Q01DX001 (ip), vehicle: Klucel (hydroxypropylcellulose) (HPC) 96 % of control | dose: 130.0 mg/kg/injection, schedule: Q01DX001 (ip), vehicle: Klucel (hydroxypropylcellulose) (HPC) 96 % of control

CC(=O)NC1=C(S(=O)(=O)O)c2ccccc2C1
inactive: [1] 105 % of control | [2] 98 % of control | [3] 94 % of control and 110 % of control and 118 % of control | dose: 100.0 mg/kg/injection, schedule: Q04DX003 (ip), vehicle: saline 104 % of control | [4] 115 % of control | [5] 98 % of control and 104 % of control | [6] 94 % of control and 103 % of control | dose: 200.0 mg/kg/injection, schedule: Q04DX003 (ip), vehicle: saline 96 % of control | [7] 108 % of control | [8] 105 % of control and 106 % of control | [9] 102 % of control and 109 % of control and 88 % of control | dose: 400.0 mg/kg/injection, schedule: Q04DX003 (ip), vehicle: saline 102 % of control

COc1cccc(OC)c1OC
inactive: dose: 87.5 mg/kg/injection, schedule: Q01DX009 (ip), vehicle: Klucel (hydroxypropylcellulose) (HPC) 106 % of control | dose: 175.0 mg/kg/injection, schedule: Q01DX009 (ip), vehicle: Klucel (hydroxypropylcellulose) (HPC) 100 % of control | dose: 350.0 mg/kg/injection, schedule: Q01DX009 (ip), vehicle: Klucel (hydroxypropylcellulose) (HPC) 97 % of control

CC(N)(CO)CO
inactive: [2] 114 % of control | [3] 90 % of control | [5] 122 % of control | [6] 103 % of control | [8] 100 % of control | [9] 103 % of control

OCC(CO)(CCl)CCl
inactive: [10] 103 % of control | [11] 103 % of control | [12] 96 % of control

CC(=O)Oc1cccc2ccc(/C=C/c3cccc[n+]3C)nc12
inactive: dose: 4.0 mg/kg/injection, schedule: Q01DX015 (ip), vehicle: carboxymethylcellulose (CMC) 95 % of control | dose: 8.0 mg/kg/injection, schedule: Q01DX015 (ip), vehicle: carboxymethylcellulose (CMC) 107 % of control | dose: 16.0 mg/kg/injection, schedule: Q01DX015 (ip), vehicle: carboxymethylcellulose (CMC) 97 % of control | dose: 32.0 mg/kg/injection, schedule: Q01DX015 (ip), vehicle: carboxymethylcellulose (CMC) 102 % of control

CCOC(=O)CCN(Cc1ccccc1)C(=S)Nc1ccccc1
inactive: dose: 25.0 mg/kg/injection, schedule: Q01DX Z (ip), vehicle: methylcellulose (MC) 98 % of control

C[C@]1(O)CC[C@H]2[C@@H]3CC[C@@H]4C[C@H](O)CC[C@]4(C)[C@@]3(F)[C@@H](O)C[C@@]21C
inactive: dose: 50.0 mg/kg/injection, schedule: Q01DX Z (sc), vehicle: steriod suspending solution 107 % of control | dose: 250.0 mg/kg/injection, schedule: Q01DX Z (sc), vehicle: steriod suspending solution 101 % of control | dose: 500.0 mg/kg/injection, schedule: Q01DX Z (sc), vehicle: steriod suspending solution 95 % of control

CCNC(=O)c1cc(NC(=O)c2ccc(C(=O)Nc3cc(C(=O)NCC)cc(C4=NCCN4)c3)cc2)cc(C2=NCCN2)c1
inactive: dose: 14.25 mg/kg/injection, schedule: Q01DX015 (ip), vehicle: water 101 % of control | dose: 28.5 mg/kg/injection, schedule: Q01DX015 (ip), vehicle: water 98 % of control | dose: 57.0 mg/kg/injection, schedule: Q01DX015 (ip), vehicle: water 116 % of control

O/C(=C/C(=S)S)c1ccco1
inactive: dose: 25.0 mg/kg/injection, schedule: Q01DX009 (ip), vehicle: water 87 % of control | dose: 50.0 mg/kg/injection, schedule: Q01DX009 (ip), vehicle: water 93 % of control | dose: 100.0 mg/kg/injection, schedule: Q01DX009 (ip), vehicle: water 88 % of control | dose: 200.0 mg/kg/injection, schedule: Q01DX009 (ip), vehicle: water 90 % of control | dose: 400.0 mg/kg/injection, schedule: Q01DX009 (ip), vehicle: water 93 % of control

O=C1c2ccccc2C(=C/C=C/c2ccccc2)c2ccccc21
inactive: [13] 99 % of control | [14] 89 % of control | [15] 92 % of control

CCC1(CC)C(=O)NC(=NCCCC(N)C(=O)O)NC1=O (centres undefined)
inactive: dose: 75.0 mg/kg/injection, schedule: Q01DX001 (ip), vehicle: carboxymethylcellulose (CMC) 106 % of control | dose: 150.0 mg/kg/injection, schedule: Q01DX001 (ip), vehicle: carboxymethylcellulose (CMC) 109 % of control

O=C(O)C(O)c1cccc2ccccc12 (centres undefined)
inactive: [10] 100 % of control | [11] 100 % of control

CC1(C)CC(=NNC(N)=S)CC(C)(C)N1O
inactive: dose: 25.0 mg/kg/injection, schedule: Q04DX002 (ip), vehicle: saline 102 % of control | dose: 50.0 mg/kg/injection, schedule: Q04DX002 (ip), vehicle: saline with Tween-80 93 % of control | dose: 50.0 mg/kg/injection, schedule: Q04DX002 (ip), vehicle: saline 94 % of control | [16] 101 % of control

Cc1c2oc3c(C)ccc(C(=O)NCCN4CCN(c5ccccc5)CC4)c3nc-2c(C(=O)NCCN2CCN(c3ccccc3)CC2)c(N)c1=O
inactive: [16] 92 % of control | dose: 200.0 mg/kg/injection, schedule: Q04DX002 (ip), vehicle: saline with Tween-80 95 % of control | dose: 400.0 mg/kg/injection, schedule: Q04DX002 (ip), vehicle: saline with Tween-80 95 % of control

COc1cc(/C=N/NC(=O)c2ccccc2)ccc1O
inactive: [13] 100 % of control | [14] 95 % of control | [15] 94 % of control

O=c1c(-c2ccccc2)c(-c2ccccc2)n2n1C1C=CC2C1 (centres undefined)
inactive: [17] 96 % of control | [18] 96 % of control | [19] 96 % of control

O=C(O)/C=C/C(=O)c1ccccc1
inactive: [20] 109 % of control

CN1CC(CO)=CC2c3cccc4[nH]cc(c34)CC21 (centres undefined)
inactive: [1] 94 % of control

O=C(Nc1ccc(Cl)cc1C(F)(F)F)OCCOc1ccc(-c2ccccc2)cc1
inactive: [10] 98 % of control | [11] 96 % of control | [12] 96 % of control

CC(C)C(Cl)C(=O)O (centres undefined)
inactive: dose: 75.0 mg/kg/injection, schedule: Q01DX001 (ip), vehicle: saline 96 % of control | dose: 150.0 mg/kg/injection, schedule: Q01DX001 (ip), vehicle: saline 104 % of control

CCOc1ccc(NC(=O)N(O)C2(C#N)CCCCC2)cc1
inactive: dose: 100.0 mg/kg/injection, schedule: Q01DX001 (ip), vehicle: other 93 % of control | dose: 200.0 mg/kg/injection, schedule: Q01DX001 (ip), vehicle: other 96 % of control | dose: 400.0 mg/kg/injection, schedule: Q01DX001 (ip), vehicle: other 93 % of control

CCCCCCCCN1N=C(C)CCC1=O
inactive: [1] 101 % of control | [4] 90 % of control | [7] 101 % of control

Nc1cc(N)nc(C(F)(F)F)n1
inactive: dose: 50.0 mg/kg/injection, schedule: Q01DX Z (ip), vehicle: methylcellulose (MC) 102 % of control | dose: 100.0 mg/kg/injection, schedule: Q01DX Z (ip), vehicle: methylcellulose (MC) 94 % of control

COC(=O)c1c(C)ccc2c(O)c3c(cc12)C(=O)c1c2c(cc(O)c1C3=O)C1(C)OC(C)(O2)C(O)C(N(C)C)C1O (centres undefined)
inactive: dose: 25.0 mg/kg/injection, schedule: Q01DX009 (ip), vehicle: saline 96 % of control | dose: 50.0 mg/kg/injection, schedule: Q01DX009 (ip), vehicle: saline 96 % of control | [2] 104 % of control | [5] 98 % of control | [8] 102 % of control

O=C(CCl)N(O)c1ccc(/C=C/c2ccccc2)cc1
inactive: [17] 90 % of control | [18] 88 % of control | [19] 95 % of control

Cn1c(=O)c2ncn(CC3CCCCC3)c2n(C)c1=O
inactive: [20] 87 % of control | [17] 90 % of control | [18] 86 % of control
